The record followed here is PMC6518372, “An enzymatically stable GIP/xenin hybrid peptide restores GIP sensitivity, enhances beta cell function and improves glucose homeostasis in high-fat-fed mice” (Diabetologia, 2016).

The test system of this assay is high-fat-fed mice. In words: Pancreatic insulin content and islet histology after 21 day treatment. The class given is in vivo, mouse. Conditions: 21 days at 25 nmol/kg twice daily i.p. As for the experimental part: Pancreas tissue was excised, divided longitudinally and either snap frozen for extraction of insulin using acid ethanol (5 ml/g), as described previously, or processed for immunohistochemical examination. Immunohistochemistry was performed as described previously. For specific details, please see ESM Methods. […]
insulin secretory studies, blood glucose and plasma insulin were measured immediately prior to and 15, 30, 60 and 105 min after i.p. administration of glucose alone (18 mmol/kg bw) or in combination with test peptides (each at 25 nmol/kg bw) in non-fasted mice.
Immunohistochemistry Tissue sections were deparaffinised, rehydrated and probed with primary antibodies: mouse anti-insulin antibody (1:500; Abcam, ab6995), guinea-pig anti-glucagon antibody (PCA2/4, 1:400; raised in-house) or rabbit anti-Ki67 (1:200; Abcam ab16667), as appropriate. We confirmed the specificity of all antibodies in blocking experiments using the native peptide. Sections were then incubated with secondary antibody, Alexa Fluor 488 goat anti-guinea pig IgG (1:400), Alexa Fluor 594 goat anti-mouse IgG (1:400) or Alexa Fluor 594 goat anti-rabbit IgG (1:400); respectively. TUNEL staining was performed using fluorescein in situ cell detection kit (Roche Diagnostics, Germany). The slides were viewed under a FITC (488 nm) or TRITC filter (594 nm) using a fluorescent microscope (Olympus system microscope, model BX51) and photographed using a DP70 camera adapter system. Islet parameters were analysed using CellF image analysis software (Olympus Soft Imaging Solutions, GmbH).

Structures are written as SMILES.

Regarding `CC[C@H](C)[C@H](NC(=O)[C@H](CO)NC(=O)[C@H](Cc1ccc(O)cc1)NC(=O)[C@H](CC(=O)O)NC(=O)[C@H](CO)NC(=O)[C@@H](NC(=O)[C@H](Cc1ccccc1)NC(=O)[C@@H](NC(=O)CNC(=O)[C@H](CCC(=O)O)NC(=O)[C@@H](C)NC(=O)[C@@H](N)Cc1ccc(O)cc1)[C@@H](C)O)[C@@H](C)CC)C(=O)N[C@@H](C)C(=O)N[C@@H](CCSC)C(=O)N[C@@H](CC(=O)O)C(=O)N[C@@H](CCCCN)C(=O)N[C@H](C(=O)N[C@@H](Cc1c[nH]cn1)C(=O)N[C@@H](CCC(N)=O)C(=O)N[C@@H](CCC(N)=O)C(=O)N[C@@H](CC(=O)O)C(=O)N[C@@H](Cc1ccccc1)C(=O)N[C@H](C(=O)N[C@@H](CC(N)=O)C(=O)N[C@@H](Cc1c[nH]c2ccccc12)C(=O)N[C@@H](CC(C)C)C(=O)N[C@@H](CC(C)C)C(=O)N[C@@H](C)C(=O)N[C@@H](CCC(N)=O)C(=O)N[C@@H](CCCCN)C(=O)NCC(=O)N[C@@H](CCCCN)C(=O)N[C@@H](CCCCN)C(=O)N[C@@H](CC(N)=O)C(=O)N[C@@H](CC(=O)O)C(=O)N[C@@H](Cc1c[nH]c2ccccc12)C(=O)N[C@@H](CCCCN)C(=O)N[C@@H](Cc1c[nH]cn1)C(=O)N[C@@H](CC(N)=O)C(=O)N[C@H](C(=O)N[C@H](C(=O)N[C@@H](CCC(N)=O)C(=O)O)[C@@H](C)O)[C@@H](C)CC)C(C)C)[C@@H](C)CC` [(DAla^2)GIP], the Beta cell area result is on record as “no significant effect on overall pancreatic islet area or beta cell area” and the Pancreatic islet area result is “no significant effect on overall pancreatic islet area or beta cell area”. Moreover, the “Number of islets per mm^2” value (vs all other groups) is recorded as “significantly (p < 0.05 to p < 0.01) augmented”. Moreover, where the note is “vs high-fat-fed controls”, the Alpha cell area result is given as “decreased (p < 0.001) alpha cell area” and the “Frequency of beta cell apoptosis (TUNEL)” value was “significantly (p < 0.01) decreased”.
